Test results published in patent publication US5378844A, “8-(1-aminocycloalkyl)-1,3-dialkylxanthine derivatives, preparation process and antidepressant, nootropic and psychostimulant composition thereoff” (Biomedica Foscama Industria Chimico-Farmaceutica S.p.A., priority 1992, dated 1995).
Read-outs that look alike come from different tables or passages of the source. Each block holds one compound with its values, some of them ahead of it.

How the values were obtained:
[1] = test system: Male Wistar (Charles River) rats; assay: Locomotor activity: "Activity cage" test; type: in vivo; conditions: Rattus norvegicus, ip, read-out: DE50 (ED50 for % increase of spontaneous motion activity)
Text: This test allows the spontaneous locomotor activity of the animal to be studied. Male Wistar (Charles River) rats weighing 150-250 g were used. […] The printer connected to the system records the number of movements performed by the rats within the first 5' from the moment they enter the cage.

[2] = test system: White male CD 1 (Charles River) mice; assay: Nootropic activity: "Passive avoidance" test (amnesia induced by scopolamine); type: in vivo; conditions: scopolamine 2 mg/kg i.p.
[3] = test system: Male white CD 1 (Charles River) mice; assay: Antidepressant activity: antagonism to reserpine (hypothermia induced by reserpine); type: in vivo; conditions: 4 h after reserpine 2.5 mg/kg i.p.
Experimental: Male white CD 1 (Charles River) mices weighing 23-35 g were used. Before every test, the basal rectal temperature of every mouse is registered. […] The rectal temperature is measured again at t=O and 30', 60', 90' and 120' after administration of the drug.

[4] = test system: White male CD 1 (Charles River) mice; assay: Antidepressant activity: "Behavioral despair" test (Porsolt); type: in vivo; conditions: relative to control group
Experimental: The test described in R. D. Porsolt et al., Arch.Int.Pharmacodyn. 229, 327 (1977), which allows the antidepressant activity of a drug to be evaluated on an animal placed in an unusual, stress-causing environment, such as the water environment, was carried out. White male CD 1 (Charles River) mice weighing 24-35 g were used.
1 h before the immersion in water, the animal is administered the test compound by the intraperitoneal (i.p.) route. […] As the reference substances the xanthines theophylline and caffeine, the nootropically acting drug oxiracetam and the tricyclic antidepressant desipramine were included.

adenosine A2 receptors = molecular target: T1, adenosine A2 receptors (Rattus norvegicus, UniProt P30543); assay: Binding to the adenosine A2 receptors, (3H)-NECA + 50 nM CPA, synaptosomal membranes from rat brain; conditions: 4 nM (3H)-NECA and 50 nM CPA, 1 h at 25° C., Ki from IC50 via Cheng-Prusoff
T1 construct: preparations of sinaptosomial membranes from rat brain; from tissue; host or cells: rat brain synaptosomal membranes
T1 sequence (P30543 whole entry): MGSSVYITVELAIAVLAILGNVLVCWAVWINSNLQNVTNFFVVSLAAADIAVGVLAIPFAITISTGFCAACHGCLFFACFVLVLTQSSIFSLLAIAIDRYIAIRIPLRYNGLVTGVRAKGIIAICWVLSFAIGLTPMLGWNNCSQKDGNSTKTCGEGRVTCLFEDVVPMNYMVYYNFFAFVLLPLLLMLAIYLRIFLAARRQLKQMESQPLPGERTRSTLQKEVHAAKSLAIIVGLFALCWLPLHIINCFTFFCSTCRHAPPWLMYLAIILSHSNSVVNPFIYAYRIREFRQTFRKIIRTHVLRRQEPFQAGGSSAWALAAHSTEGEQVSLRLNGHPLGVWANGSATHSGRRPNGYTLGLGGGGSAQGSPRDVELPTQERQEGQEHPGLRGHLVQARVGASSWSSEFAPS
Experimental: The receptor binding tests were carried out on preparations of sinaptosomial membranes from rat brain.
200 μg of membrane proteins were incubated for 1 h at 25° C. with the test substance and 0.3 nM (3H)-DPCPX in 400 μl of 50 mM tris-HCl pH=7.4. The non-specific binding was determined with 20 μM R-PIA. The binding to the A2 receptors was carried out by incubating 200 μg of membrane proteins for 1 h at 25° C. with the test substance, 4 nM (3H)-NECA and 50 nM CPA. The non-specific binding was determined with 200 μM CPA.
(§1) The incubations were blocked by centrifugal methods and the separation of the bound from free material was carried out, followed by determination of the contained radioactivity by liquid scintillation. The dosis-inhibition curves were obtained by assaying the receptor displacement at 14 different concentrations of the test substance (all the tests are carried out in triplicate). The tested substances were dissolved into dimethylsulfoxide and diluted in 50 mM Tris-HCl, buffer pH=7.4. The IC50 values were determined by means of non-linear regression curves and transformed into Ki values according to the Cheng-Prusoff equation.

adenosine A1 receptors = molecular target: T2, adenosine A1 receptors (Rattus norvegicus, UniProt P25099); assay: Binding to the adenosine A1 receptors, (3H)-DPCPX displacement, synaptosomal membranes from rat brain; conditions: for Ki: rat brain synaptosomal membranes, 0.3 nM (3H)-DPCPX, 1 h at 25° C., pH 7.4, Ki from IC50 via Cheng-Prusoff
T2 construct: preparations of sinaptosomial membranes from rat brain; from tissue; host or cells: rat brain synaptosomal membranes
T2 sequence (P25099 1-326): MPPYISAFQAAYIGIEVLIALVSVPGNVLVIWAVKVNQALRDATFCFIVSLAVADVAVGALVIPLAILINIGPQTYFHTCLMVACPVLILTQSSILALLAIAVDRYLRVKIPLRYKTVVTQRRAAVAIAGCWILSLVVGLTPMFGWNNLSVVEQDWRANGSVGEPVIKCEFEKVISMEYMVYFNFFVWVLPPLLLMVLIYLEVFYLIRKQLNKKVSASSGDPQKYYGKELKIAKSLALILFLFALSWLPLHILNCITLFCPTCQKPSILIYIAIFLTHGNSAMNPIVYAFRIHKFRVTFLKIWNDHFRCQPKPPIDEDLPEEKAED
Experimental: as §1, with “The receptor binding tests were carried out on preparations of sinaptosomial membranes from rat brain. Binding to the A1 receptors has been carried out as follows: 200 μg of membrane proteins were incubated for 1 h at 25° C. with the test substance and 0.3 nM (3H)-DPCPX in 400 μl of 50 mM tris-HCl pH=7.4. The non-specific binding was determined with 20 μM R-PIA. The binding to the A2 receptors was carried out by incubating 200 μg of membrane proteins for 1 h at 25° C. with the test substance, 4 nM (3H)-NECA and 50 nM CPA. The non-specific binding was determined with 200 μM CPA. The incubations” for “The incubations”

[5] = 30' before activity cage, movements within first 5', relative to control group
[6] = dose 10 (unit not given), i.p. 1 h before acquisition trial
[7] = 10 mg/kg i.p., 1 h before immersion

Compound: Cn1c(=O)c2[nH]c(-c3ccccc3)nc2n(C)c1=O [8-PHENYLTHEOPHYLINE]
ED50 [1, 5]: 6.01 mg/kg
ANTIAMNESIC ACTIVITY (percentage of animals that do not trespass the door) [2, 6]: 40%

Compound: Cn1c(=O)c2c(ncn2C)n(C)c1=O [CAFFEINE]
ED50 [1]: 4.33 mg/kg
ANTIAMNESIC ACTIVITY (percentage of animals that do not trespass the door) [2, 6]: 60%
Δ TEMPERATURE (maximum temperature variation relative to t=0) ([3]; 20 mg/kg i.p.): +1.63 °C
% VARIATION OF MOTI[…] LENGTH ([4]; 25 mg/kg (os)): -30.34%

Ki (adenosine A2 receptors): 54.6 µM
Ki (adenosine A1 receptors): 0.026 µM
SELECTIVITY (A2/A1) (adenosine A1 receptors; ratio of Ki,A2 to Ki,A1): 2100
Compound: CCCn1c(=O)c2[nH]c(C3(N)CCCC3)nc2n(CCC)c1=O [COMPOUND EX. 1, 8-(1-aminocyclopentyl)-1,3-dipropylxanthine]
ED50 [1, 5]: 0.492 mg/kg
ANTIAMNESIC ACTIVITY (percentage of animals that do not trespass the door) [2, 6]: 80%
Δ TEMPERATURE (maximum temperature variation relative to t=0) ([3]; 10 mg/kg i.p.): +0.26 °C
Δ TEMPERATURE (maximum temperature variation relative to t=0) ([3]; 20 mg/kg i.p.): +0.71 °C
% VARIATION OF MOTIONLESSNESS TIME LENGTH [4, 7]: -28.33%
% VARIATION OF MOTIONLESSNESS TIME LENGTH ([4]; 20 mg/kg i.p., 1 h before immersion): -42.93%

Ki (adenosine A1 receptors): 0.115 µM
Compound: CCCn1c(=O)c2[nH]c(C3(NC(=O)c4ccccc4)CCCC3)nc2n(CCC)c1=O [COMPOUND EX. 6, 8-(1-benzoylaminocyclopentyl)-1,3-dipropylxanthine]
% VARIATION OF MOTIONLESSNESS TIME LENGTH [4, 7]: -24.22%

Ki (adenosine A1 receptors): 0.166 µM
Compound: CCCn1c(=O)c2[nH]c(C3(NS(C)(=O)=O)CCCC3)nc2n(CCC)c1=O [COMPOUND EX. 8, 1,3-dipropyl-8-(1-methanesulfonylaminocyclopenthyl)xanthine]

Ki (adenosine A1 receptors): 0.108 µM
Compound: CCCn1c(=O)c2[nH]c(C3(NC(=O)OCC)CCCC3)nc2n(CCC)c1=O [COMPOUND EX. 10, 1,3-dipropyl-8-(1(N-ethoxycarbonylamino)cyclopentyl)xanthine]

Ki (adenosine A1 receptors): 6.99 µM
Compound: CCCn1c(=O)c2[nH]c(C3(NC(=O)CC(=O)O)CCCC3)nc2n(CCC)c1=O [COMPOUND EX. 12, 1,3-dipropyl-8-(1-emimalonamidocyclopentyl)xanthine]

Compound: CNCCCN1c2ccccc2CCc2ccccc21 [DESIPRAMINE]
ANTIAMNESIC ACTIVITY (percentage of animals that do not trespass the door) ([2]; dose 45 (unit not given), i.p. 1 h before acquisition trial): 30%
Δ TEMPERATURE (maximum temperature variation relative to t=0) ([3]; 16 mg/kg i.p.): +1.39 °C
% VARIATION OF MOTIONLESSNESS TIME LENGTH ([4]; 15 mg/kg i.p.): -24.50%

Compound: CNCCC=C1c2ccccc2CCc2ccccc21 [NORTRIPTYLINE]
Δ TEMPERATURE (maximum temperature variation relative to t=0) ([3]; 10 mg/kg i.p.): +2.34 °C

Compound: NC(=O)CN1CC(O)CC1=O (stereo not drawn) [OXIRACETAM]
ANTIAMNESIC ACTIVITY (percentage of animals that do not trespass the door) ([2]; dose 1000 (os) (unit not given)): 40%
% VARIATION OF MOTIONLESSNESS TIME LENGTH ([4]; 500 mg/kg i.p.): -29.07%

Compound: Cn1c(=O)c2[nH]cnc2n(C)c1=O [THEOPHYLLINE, 1,3-dimethylxanthine]
ED50 [1]: ~3.75 mg/kg
ANTIAMNESIC ACTIVITY (percentage of animals that do not trespass the door) ([2]; dose 20 (unit not given), i.p. 1 h before acquisition trial): 30%
Δ TEMPERATURE (maximum temperature variation relative to t=0) ([3]; 20 mg/kg i.p.): +0.81 °C
% VARIATION OF MOTI[…] LENGTH ([4]; 18.7 mg/kg (os)): -48.88%
